# Results reported in PMC5216056 (Nature Communications, 2017).
# Several values for one entry are separate records, joined by “and”; a condition that tells them apart may be missing. Equal entries are not always repeated. Where two headings read alike, the source gives them in different places.
# How the values were obtained:
# [1] = molecular target: T1, mCB2R (Mus musculus, UniProt P47936); test: biochemical; format: binding; parameters: from tissue; host or cells: spleen of male C57BL/6J mice; settings: mouse spleen membranes; read-out: pKi ± SEM mCB2R (converted)
# T1 sequence (P47936 whole entry): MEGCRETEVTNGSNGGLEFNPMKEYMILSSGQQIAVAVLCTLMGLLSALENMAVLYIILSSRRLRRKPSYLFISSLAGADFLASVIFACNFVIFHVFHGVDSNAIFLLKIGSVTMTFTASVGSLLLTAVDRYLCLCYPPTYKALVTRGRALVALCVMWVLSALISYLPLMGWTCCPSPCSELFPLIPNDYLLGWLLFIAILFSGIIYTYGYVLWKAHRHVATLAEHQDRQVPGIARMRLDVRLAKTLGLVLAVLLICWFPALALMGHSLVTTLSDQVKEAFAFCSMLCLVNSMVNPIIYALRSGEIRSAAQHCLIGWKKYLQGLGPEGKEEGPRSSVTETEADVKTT
# [2] = test system: C57BL6/J mice; test: Triad assay: antinociception; format: in vivo, mouse; settings: i.p., cumulative dosing, mice
# [3] = in vitro; settings: both, human, microsomes, pH 7.4
# [4] = molecular target: T2, hCB1R (Homo sapiens, UniProt P21554); test: cell-based; format: cell-based; settings: read-out: Emax ± SEM pERK hCB1R
# T2 construct: host or cells: CHO
# T2 sequence (P21554 whole entry): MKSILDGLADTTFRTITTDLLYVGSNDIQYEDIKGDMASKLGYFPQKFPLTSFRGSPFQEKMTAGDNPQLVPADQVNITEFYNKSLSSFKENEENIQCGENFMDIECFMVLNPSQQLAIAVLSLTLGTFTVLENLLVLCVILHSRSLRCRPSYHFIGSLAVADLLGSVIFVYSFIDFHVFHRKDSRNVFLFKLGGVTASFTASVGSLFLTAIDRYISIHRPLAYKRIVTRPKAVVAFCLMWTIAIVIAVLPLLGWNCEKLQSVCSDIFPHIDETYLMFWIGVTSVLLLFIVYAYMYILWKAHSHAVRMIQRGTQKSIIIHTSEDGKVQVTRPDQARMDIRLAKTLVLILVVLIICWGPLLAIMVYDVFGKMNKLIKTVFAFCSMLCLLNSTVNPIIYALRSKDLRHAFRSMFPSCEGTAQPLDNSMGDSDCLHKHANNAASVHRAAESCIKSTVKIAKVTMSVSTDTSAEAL
# [5] = molecular target: T2, hCB1R; test: cell-based; format: cell-based; settings: AtT20, read-out: Emax ± SEM GIRK hCB1R
# [6] = test system: C57BL6/J mice; test: Triad assay: catalepsy; format: in vivo, mouse; settings: i.p., cumulative dosing, mice
# [7] = test system: AEA reuptake in HaCaT cells; test: cells; format: cell-based, human; settings: Homo sapiens, HaCaT
# [8] = molecular target: T3, mCB1R (Mus musculus, UniProt P47746); test: biochemical
# T3 construct: from tissue; host or cells: brain of male C57BL/6J mice
# T3 sequence (P47746 whole entry): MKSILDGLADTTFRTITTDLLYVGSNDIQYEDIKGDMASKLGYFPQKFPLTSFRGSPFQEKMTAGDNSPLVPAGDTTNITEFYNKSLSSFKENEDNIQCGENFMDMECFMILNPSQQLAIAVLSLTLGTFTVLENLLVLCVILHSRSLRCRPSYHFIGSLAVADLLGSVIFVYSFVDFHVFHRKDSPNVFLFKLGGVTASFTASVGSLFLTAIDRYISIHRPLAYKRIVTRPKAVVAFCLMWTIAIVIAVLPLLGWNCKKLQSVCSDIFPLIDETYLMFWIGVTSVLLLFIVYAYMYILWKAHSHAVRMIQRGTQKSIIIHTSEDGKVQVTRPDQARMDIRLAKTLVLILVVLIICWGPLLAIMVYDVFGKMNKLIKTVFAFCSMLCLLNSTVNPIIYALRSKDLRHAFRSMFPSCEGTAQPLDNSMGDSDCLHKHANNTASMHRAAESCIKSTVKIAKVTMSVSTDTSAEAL
# [9] = molecular target: T4, hCB2R (Homo sapiens, UniProt P34972); parameters: expressed in transfected cells; host or cells: Flp-In-293 (Invitrogen #R750-07), pcDNA5/FRT
# T4 sequence (P34972 whole entry): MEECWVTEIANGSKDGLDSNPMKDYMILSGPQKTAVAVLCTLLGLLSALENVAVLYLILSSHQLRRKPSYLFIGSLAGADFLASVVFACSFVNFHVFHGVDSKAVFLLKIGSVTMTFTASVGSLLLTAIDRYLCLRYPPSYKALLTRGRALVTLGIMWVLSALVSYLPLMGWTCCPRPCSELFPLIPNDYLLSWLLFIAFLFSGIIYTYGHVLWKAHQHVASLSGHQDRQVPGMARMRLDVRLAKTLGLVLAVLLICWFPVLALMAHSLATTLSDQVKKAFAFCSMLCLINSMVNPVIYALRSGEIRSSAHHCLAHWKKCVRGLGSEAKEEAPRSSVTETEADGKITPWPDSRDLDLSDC
# [10] = molecular target: T2, hCB1R; test: biochemical; format: binding
# [11] = molecular target: T4, hCB2R; test: cell-based; format: cell-based; parameters: expressed in transfected cells; host or cells: Flp-In-293 (Invitrogen #R750-07), pcDNA5/FRT; settings: read-out: Emax ± SEM pERK hCB2R
# [12] = molecular target: T3, mCB1R; test: biochemical; format: binding
# [13] = in vitro; settings: male, C57BL/6J, mouse, microsomes, pH 7.4
# [14] = test system: C57BL6/J mice; test: Triad assay: hypothermia; format: in vivo, mouse; settings: i.p., cumulative dosing, mice
# [15] = molecular target: T2, hCB1R; test: cell-based
# [16] = physchem; settings: pH 6.5, aqueous buffer, thermodynamic from solid
# [17] = molecular target: T4, hCB2R; test: cell-based; format: cell-based; parameters: expressed in transfected cells; host or cells: Flp-In-293 (Invitrogen #R750-07), pcDNA5/FRT; settings: read-out: Emax ± SEM cAMP hCB2R
# [18] = molecular target: T4, hCB2R; test: cell-based; format: cell-based; parameters: expressed in transfected cells; host or cells: Flp-In-293 (Invitrogen #R750-07), pcDNA5/FRT; settings: AtT20, read-out: Emax ± SEM GIRK hCB2R
# [19] = molecular target: T1, mCB2R; test: biochemical; format: biochemical; parameters: from tissue; host or cells: spleen of male C57BL/6J mice
compound,measurement,setting,value
CCCCCCC(C)(C)c1cc(O)c2c(c1)OC(C)(C)[C@@H]1CC=C(CO)C[C@@H]21 [HU210],Ki,[1],0.537 nM
same,antinociception ED50 (95% CL),[2],0.41 (0.31–0.54) mg kg^−1
same,Pct acceptor,PAMPA,0%
same,Pct donor,PAMPA,23%
same,Pct membrane,"PAMPA, compound found in membranes",76%
same,Pampa Peff,membrane permeation coefficient,0.22 cm/s*10-6
same,microsomal CLint,[3],25 µL/min/mg
same,Emax,[4],96 ± 7%
same,Emax,[5],97 ± 8%
same,catalepsy ED50 (95% CL),[6],0.19 (0.14–0.27) mg kg^−1
same,inhibition at 10 µM,"[7]; read-out: AEA reuptake % inhibition, effect at 10 µM, HaCaT cells, 10 µM (values marked *)",44%
same,IC50,[7]; read-out: AEA reuptake IC50 (95% CI) HaCaT cells,> 5000 nM
same,EC50,[8]; pEC50 ± SEM cAMP mCB1R,0.0933 nM
same,Emax,[8]; read-out: Emax cAMP mCB1R,65%
same,LogR GIRK,[9],7.19
same,LogR pERK,[9],8.22
same,RE GIRK,[9],0.21
same,RE pERK,[9],0.15
same,pERK-GIRK bias factor (BF),[9],0.71
same,pERK-GIRK ΔΔlogR,[9],-0.15
same,ΔLogR GIRK,[9],-0.67
same,ΔLogR pERK,[9],-0.82
same,Ki,[10],0.282 nM
same,Emax,[11],105 ± 10%
same,Ki,[12],1.1 nM
same,microsomal CLint,[13],33 µL/min/mg
same,hypothermia ED50 (95% CL),[14],0.35 (0.30–0.41) mg kg^−1
same,EC50,[15]; pEC50 ± SEM cAMP hCB1R,0.263 nM
same,Emax,[15]; read-out: Emax ± SEM cAMP hCB1R,104 ± 3%
same,solubility kinetic,[16],< 0.2 µg/mL and < 0.5 µM
same,Emax,[17],94 ± 0.1%
same,Emax,[18],105 ± 4%
same,EC50,"[19]; mouse spleen, read-out: pEC50 ± SEM cAMP mCB2R (converted)",6.61 nM
same,Emax,[19]; read-out: Emax cAMP mCB2R,68%
